Results as given in article PMC9939733 (The Journal of Biological Chemistry, 2023).
Numbering of substitutions follows the chain as printed. Where a name gives a salt, the structure may show the parent alone.

What was measured:
Assay type in all cases: biochemical
R132H IDH1 [1] = target: T1, R132H IDH1 (Homo sapiens, UniProt O75874, R132H); experiment: Absorbance assay, variant activity in the presence of equimolar 2OG (inhibition screen); design: made in house; host or cells: Escherichia coli BL21(DE3) pLyS; conditions: […] 2OG and […] test compound, 0.03 μM R132H IDH1, 50 μM NADPH
Procedure, shortened: (§1)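 Compound was added to all wells at once with a multichannel pipettor. Reagent was then dispensed to start the reaction. Every condition was done in four technical replicates.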

WT IDH2 [2] = target: T2, WT IDH2 (Homo sapiens, UniProt P48735); experiment: Absorbance assay, substrate activity in the absence of DL-isocitrate; conditions: no DL-isocitrate; […] test compound, 75 μM NADP+, 2.0 nM WT IDH2; compared to DL-isocitrate
T2 construct: made in house; host or cells: Sf21 insect cells (cell pellets prepared at Evotec)
T2 sequence (P48735 40-452): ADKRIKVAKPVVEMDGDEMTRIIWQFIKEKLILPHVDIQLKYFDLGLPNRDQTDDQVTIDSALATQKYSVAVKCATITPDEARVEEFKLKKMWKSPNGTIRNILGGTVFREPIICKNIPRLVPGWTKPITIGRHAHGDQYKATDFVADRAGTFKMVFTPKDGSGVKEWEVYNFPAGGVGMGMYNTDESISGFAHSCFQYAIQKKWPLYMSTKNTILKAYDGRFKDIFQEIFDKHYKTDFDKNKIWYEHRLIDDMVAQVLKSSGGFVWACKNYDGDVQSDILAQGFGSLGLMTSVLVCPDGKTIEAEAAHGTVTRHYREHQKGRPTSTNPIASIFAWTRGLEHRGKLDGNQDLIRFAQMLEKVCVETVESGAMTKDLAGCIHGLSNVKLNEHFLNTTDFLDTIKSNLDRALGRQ
Procedure, shortened: as §1

WT IDH1 [3] = target: T3, WT IDH1 (Homo sapiens, UniProt O75874); experiment: as above; conditions: no DL-isocitrate; […] test compound, 75 μM NADP+, 2.0 nM WT IDH1; compared to DL-isocitrate
T3 construct: made in house; host or cells: Escherichia coli BL21(DE3) pLyS
Procedure, shortened: as §1

R140Q IDH2 [4] = target: T4, R140Q IDH2 (Homo sapiens, UniProt P48735, R140Q); experiment: Absorbance assay (NADPH consumption), substrate turnover in the absence of 2OG; conditions: no 2OG; 6.0 mM test compound, 0.03 μM R140Q IDH2, 50 μM NADPH; 2OG = 100
T4 construct: made in house; host or cells: Sf21 insect cells (cell pellets prepared at Evotec)
T4 sequence (P48735 40-452 R140Q): T2 sequence (P48735 40-452) with R101Q
Procedure, shortened: as §1

R172K IDH2 [5] = target: T5, R172K IDH2 (Homo sapiens, UniProt P48735, R172K); experiment: as above; conditions: no 2OG; 1.0 mM test compound, 0.03 μM R172K IDH2, 50 μM NADPH; 2OG = 100
T5 construct: made in house; host or cells: Sf21 insect cells (cell pellets prepared at Evotec)
T5 sequence (P48735 40-452 R172K): T2 sequence (P48735 40-452) with R133K
Procedure, shortened: as §1

R132H IDH1 [6] = target: T1, R132H IDH1; experiment: as above; design: made in house; host or cells: Escherichia coli BL21(DE3) pLyS; conditions: no 2OG; […] test compound, 0.03 μM R132H IDH1, 50 μM NADPH; 2OG = 100
Procedure, shortened: as §1

R140Q IDH2 [7] = target: T4, R140Q IDH2; experiment: Absorbance assay, variant activity in the presence of equimolar 2OG (inhibition screen); conditions: 6.0 mM 2OG and 6.0 mM test compound, 0.03 μM R140Q IDH2, 50 μM NADPH
Procedure, shortened: as §1

R172K IDH2 [8] = target: T5, R172K IDH2; experiment: as above; conditions: for activity [%] (%-substrate conversion after 20 min incubation): 1.0 mM 2OG and 1.0 mM test compound, 0.03 μM R172K IDH2, 50 μM NADPH
Procedure, shortened: as §1

WT IDH2 [9] = target: T2, WT IDH2; experiment: Absorbance assay, WT activity in the presence of equimolar DL-isocitrate (inhibition); conditions: […] isocitrate and […] test compound, 75 μM NADP+, 2.0 nM WT IDH2
Procedure, shortened: as §1

WT IDH1 [10] = target: T3, WT IDH1; experiment: as above; conditions: […] isocitrate and […] test compound, 75 μM NADP+, 2.0 nM WT IDH1
Procedure, shortened: as §1

T1 sequence (O75874 whole entry R132H): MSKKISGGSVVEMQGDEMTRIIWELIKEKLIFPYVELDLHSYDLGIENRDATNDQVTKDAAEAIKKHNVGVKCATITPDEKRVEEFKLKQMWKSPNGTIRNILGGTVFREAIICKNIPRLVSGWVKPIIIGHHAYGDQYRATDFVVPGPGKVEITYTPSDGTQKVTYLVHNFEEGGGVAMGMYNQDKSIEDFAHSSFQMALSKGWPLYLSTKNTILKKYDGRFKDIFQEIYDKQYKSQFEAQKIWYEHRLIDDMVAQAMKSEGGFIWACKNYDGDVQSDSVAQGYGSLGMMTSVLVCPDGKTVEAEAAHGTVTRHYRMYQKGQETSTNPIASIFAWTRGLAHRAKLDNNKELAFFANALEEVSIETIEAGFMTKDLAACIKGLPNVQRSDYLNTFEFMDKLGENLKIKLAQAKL
T3 sequence (O75874 whole entry): as the sequence (O75874 whole entry R132H) above, with H132R counted along it

SMILES	activity [%] (%-substrate conversion after 20 min incubation) (R132H IDH1 [1])	activity [%] (%-substrate conversion after 20 min incubation) (WT IDH2 [2])	activity [%] (%-substrate conversion after 20 min incubation) (WT IDH1 [3])	activity [%] (%-substrate conversion after 20 min incubation) (R140Q IDH2 [4])	activity [%] (%-substrate conversion after 20 min incubation) (R172K IDH2 [5])	activity [%] (%-substrate conversion after 20 min incubation) (R132H IDH1 [6])	activity [%] (%-substrate conversion after 20 min incubation) (R140Q IDH2 [7])	activity [%] (%-substrate conversion after 20 min incubation) (R172K IDH2 [8])	activity [%] (%-substrate conversion after 20 min incubation) (WT IDH2 [9])	activity [%] (%-substrate conversion after 20 min incubation) (WT IDH1 [10])	inhibition (R172K IDH2 [8]; equimolar 2OG (1.0 mM))
O=CC(=O)O [glyoxylic acid]	108 ± 5%	< 10%	< 10%	< 10%	< 10%	< 10%	105 ± 6%	99 ± 6%	99 ± 2%	104 ± 2%	
C=C(CC(=O)O)C(=O)O [itaconic acid]	92 ± 2%	< 10%	< 10%	< 10%	< 10%	< 10%	96 ± 3%	95 ± 7%	99 ± 2%	99 ± 1%	
O=C(O)CC(=O)O [malonic acid]	103 ± 4%	< 10%	< 10%	< 10%	< 10%	< 10%	117 ± 11%	98 ± 4%	100 ± 2%	100 ± 1%	
O=C(O)C(=O)CS [mercaptopyruvic acid]	51 ± 5%	< 10%	< 10%	< 10%	< 10%	< 10%	91 ± 5%	54 ± 1%	85 ± 1%	88 ± 1%	~ 50%
C/C(=C\C(=O)O)C(=O)O [mesaconic acid]	105 ± 3%	< 10%	< 10%	< 10%	< 10%	< 10%	116 ± 9%	104 ± 5%	100 ± 2%	105 ± 2%	
CCOC(=O)/C=C/C(=O)O [mono-ethyl fumarate]	94 ± 8%	< 10%	< 10%	< 10%	< 10%	< 10%	108 ± 7%	107 ± 3%	96 ± 5%	106 ± 4%	
COC(=O)/C=C/C(=O)O [mono-methyl fumarate]	90 ± 4%	< 10%	< 10%	< 10%	< 10%	< 10%	98 ± 4%	92 ± 6%	98 ± 1%	102 ± 2%	
O=C(O)CC(=O)C(=O)O [oxaloacetic acid]	106 ± 2%	< 10%	< 10%	< 10%	< 10%	< 10%	110 ± 3%	96 ± 8%	98 ± 2%	100 ± 1%	
NC(=O)C(=O)O [oxamic acid]	99 ± 2%	< 10%	< 10%	< 10%	< 10%	< 10%	117 ± 3%	102 ± 7%	100 ± 1%	105 ± 2%	
CC(=O)C(=O)O [pyruvic acid]	112 ± 8%	< 10%	< 10%	< 10%	< 10%	< 10%	108 ± 4%	114 ± 12%	97 ± 5%	111 ± 6%	
